Reference: patent US8067442B2, “Heterocyclic antiviral compounds” (Roche Palo Alto LLC, priority 2008, dated 2011)

What was measured:
[1] = target: T1, HCV polymerase (NS5B570n-Con1) (Hepatitis C virus genotype 1b, UniProt Q9WMX2); assay: biochemical; design: species or system HCV Con1 strain
T1 construct: a 21 amino acid C-terminal deletion of full-length HCV polymerase; made in house; host or cells: E. coli BL21(DE3) pLysS, plasmid pET17b
Method: The enzymatic activity of HCV polymerase (NS5B570n-Con1) was measured as the incorporation of radiolabeled nucleotide monophosphates into acid insoluble RNA products. Unincorporated radiolabeled substrate was removed by filtration and scintillant was added to the washed and dried filter plate containing radiolabeled RNA product. The amount of RNA product generated by NS5B570n-Con1 at the end of the reaction was directly proportional to the amount of light emitted by the scintillant.
The HCV polymerase used in the enzymatic activity assay is a 21 amino acid C-terminal deletion of full-length HCV polymerase derived from HCV Con1 strain, genotype 1b (GenBank accession number AJ242654) (NS5B570n-Con1). The NS5B570n-Con1 was sub-cloned downstream to the T7 promoter of the plasmid expression construct pET17b and transformed into E. coli strain BL21(DE3) pLysS for protein expression. A single colony was used to start an innoculum for a 10 L culture in LB media supplemented with 100 μg/mL ampicillin at 37° C. Protein expression was induced by the addition of 0.25 mM isopropyl-β-D-thiogalactopyranoside (IPTG) when the optical density of the culture at […] was 0.8. Induction of protein expression was carried out at 30° C. for 16 h after which the cells were harvested by centrifugation. NS5B570n-Con1 was purified to homogeneity using a three-column purification protocol including subsequent column chromatography on Ni-NTA, SP-Sepharose HP and Superdex 75 resins.
Enzymatic reactions in the presence of cIRES RNA template (see section [0300]) contained 20 nM cIRES RNA, 20 nM NS5B570n-Con1 enzyme, 0.5 μCi of tritiated UTP (Perkin Elmer catalog no. TRK-412; specific activity: 30 to 60 Ci/mmol), 1 μM each ATP, CTP, and GTP, 40 mM Tris-HCl pH 8.0, 40 mM NaCl, 4 mM DTT (dithiothreitol), 4 mM MgCl2, 5 μl of compound serial diluted in DMSO, and nuclease-free water to a final reaction volume of 50 μl. Enzymatic reactions in the presence of 20 nM cIRES template, 20 nM NS5B570n-Con1 enzyme, 1 μCi of tritiated UTP (Perkin Elmer catalog no. TRK-412; specific activity: 30 to 60 Ci/mmol), 40 mM Tris-HCl pH 8.0, 40 mM NaCl, 4 mM DTT (dithiothreitol), 4 mM MgCl2, 5 μl of compound serial diluted in DMSO, and nuclease-free water to a final reaction volume of 50 μl. Reaction mixtures were assembled in 96-well filter plates (cat #MADVNOB, Millipore Co.) and incubated for 2 h at 30° C. Reactions were stopped by addition of 10% final (v/v) trichloroacetic acid and incubated for 40 min at 4° C. Reactions were filtered, washed with 8 reaction volumes of 10% (v/v) trichloroacetic acetic acid, 4 reaction volumes of 70% (v/v) ethanol, air dried, and 25 μl of scintillant (Microscint 20, Perkin-Elmer) was added to each reaction well.
Two RNA templates can be used to assay compounds described herein. The cIRES RNA template is 377 nucleotide long and consisting of a partial complementary sequence (36 nucleotides) of the core protein, followed by 341 nucleotide of the complementary sequence of the internal ribosome entry site. The poly A RNA template (GE Amersham catalog number 27-4110) was a homopolymeric RNA pre-annealed to a oligo(rU)16 primer at a molar ratio of 3-to-1 (primer-template). The cIRES template was used in the assay unless otherwise noted.
The amount of light emitted from the scintillant was converted to counts per minute (CPM) on a Topcount® plate reader (Perkin-Elmer, Energy Range: Low, Efficiency Mode Normal, Count Time: 1 min, Background Subtract: none, Cross talk reduction: Off).
Data was analyzed in Excel® (Microsoft®) and ActivityBase® (Idbs®). The reaction in the absence of enzyme was used to determine the background signal, which was subtracted from the enzymatic reactions. […] All data was expressed as a percentage of the positive control. The compound concentration at which the enzyme-catalyzed rate of RNA synthesis was reduced by 50% (IC50) was calculated by fitting

| Compound | melting point | IC50 [1] |
| --- | --- | --- |
| CC(C)(C)c1cc(-c2ncc[nH]c2=O)cc2c(C(=O)N3CCCC(CNS(C)(=O)=O)C3)coc12 (stereo not shown) [Compound 102, N-{1-[7-tert-Butyl-5-(3-oxo-3,4-dihydro-pyrazin-2-yl)-benzofuran-3-carbonyl]-piperidin-3-ylmethyl}-methanesulfonamide] | 172 to 174 °C | 8 nM |
| CC(C)(C)c1cc(-c2ccc[nH]c2=O)cc2c(C(=O)N3CCCC(CNS(C)(=O)=O)C3)csc12 (stereo not shown) [Compound 114, N-{1-[7-tert-Butyl-5-(2-oxo-1,2-dihydro-pyridin-3-yl)-benzo[b]thiophene-3-carbonyl]-piperidin-3-ylmethyl}-methanesulfonamide] | 175 to 177 °C | 3 nM |
| CC(C)(C)c1cc(-c2ccc[nH]c2=O)cc2c(C(=O)N3CCC[C@@H]3CNS(C)(=O)=O)csc12 [Compound 116, N-{(R)-1-[7-tert-Butyl-5-(2-oxo-1,2-dihydro-pyridin-3-yl)-benzo[b]thiophene-3-carbonyl]-pyrrolidin-2-ylmethyl}-methanesulfonamide] | 289 to 291 °C | 4 nM |
| CC(C)(C)c1cc(-c2ccc[nH]c2=O)cc2ccoc12 [Compound I-2, 3-(7-tert-Butyl-benzofuran-5-yl)-1H-pyridin-2-one] | 217 to 218 °C | 202 nM |
| CC(C)(C)c1cc(-c2ccc[nH]c2=O)cc2c(CC#N)coc12 [Compound I-5, [7-tert-Butyl-5-(2-oxo-1,2-dihydro-pyridin-3-yl)-benzofuran-3-yl]-acetonitrile] | 231 to 232 °C | 330 nM |
| CC(C)(C)c1cc(-c2ccc[nH]c2=O)cc2c(CC(=O)O)coc12 [Compound I-6, [7-tert-Butyl-5-(2-oxo-1,2-dihydro-pyridin-3-yl)-benzofuran-3-yl]-acetic acid] | 233 to 234 °C | 358 nM |
| CC(C)(C)c1cc(-c2ccc[nH]c2=O)cc2c(C(=O)c3ccccc3)coc12 [Compound I-20] | 271 to 272 °C | 49 nM |
| CC(C)(C)c1cc(-c2ccc[nH]c2=O)cc2c(-c3ccccc3)coc12 [Compound I-24] | 257 to 258 °C | 19 nM |
| COc1cccc(-c2coc3c(C(C)(C)C)cc(-c4ccc[nH]c4=O)cc23)c1 [Compound I-33] | 204 to 205 °C | 14 nM |
| CC(C)(C)c1cc(-c2ccc[nH]c2=O)cc2c(C(=O)c3cccc(O)c3)coc12 [Compound I-36, 3-[7-tert-Butyl-3-(3-hydroxy-benzoyl)-benzofuran-5-yl]-1H-pyridin-2-one] | 268 to 269 °C | 38 nM |
| CC(C)(C)c1cc(-c2ccc[nH]c2=O)cc2c(-c3ccc(CNS(C)(=O)=O)cc3)coc12 [Compound I-37, N-{4-[7-tert-Butyl-5-(2-oxo-1,2-dihydro-pyridin-3-yl)-benzofuran-3-yl]-benzyl}1-methanesulfonamide] | 271 to 273 °C | 4 nM |
| CC(C)(C)c1cc(-c2ccc[nH]c2=O)cc2c(C(=O)N3CCC[C@H](N)C3)coc12 [Compound I-41] | 269 to 270 °C | 126 nM |
| CC(C)(C)c1cc(-c2ccc[nH]c2=O)cc2c(C(=O)N3CCC[C@@H](N)C3)coc12 [Compound I-42] | 254.9 to 258.1 °C | 549 nM |
| CC(C)(C)c1cc(-c2ccc[nH]c2=O)cc2c(C(=O)N3CCC(CN)C3)coc12 (stereo not shown) [Compound I-49] | > 300 °C | 104 nM |
| CC(C)(C)c1cc(-c2ccc[nH]c2=O)cc2c(C(=O)N3CCCC(CN)C3)coc12 (stereo not shown) [Compound I-50] | 150 to 155 °C | 51 nM |
| CCNC1(C(N)=O)CCN(C(=O)c2coc3c(C(C)(C)C)cc(-c4ccc[nH]c4=O)cc23)CC1 [Compound I-66] |  | 134 nM |
| CN(C)[C@@H]1CCN(C(=O)c2coc3c(C(C)(C)C)cc(-c4ccc[nH]c4=O)cc23)C1 [Compound I-67] |  | 889 nM |

| Compound | melting point | IC50 [1] |
| --- | --- | --- |
| CC(C)(C)c1cc(-c2ccc[nH]c2=O)cc2c(C(=O)N3CCC(F)(F)CC3)coc12 [Compound I-68] |  | 597 nM |
| CC1(C)CCCN(C(=O)c2coc3c(C(C)(C)C)cc(-c4ccc[nH]c4=O)cc23)C1 [Compound I-69] |  | 831 nM |
| CC(C)(C)c1cc(-c2ccc[nH]c2=O)cc2c(C(=O)N3CCC(CO)C3)coc12 (stereo not shown) [Compound I-70] |  | 53 nM |
| CC(C)(C)c1cc(-c2ccc[nH]c2=O)cc2c(C(=O)N3CCSC3)coc12 [Compound I-71] |  | 50 nM |
| CC(C)(C)c1cc(-c2ccc[nH]c2=O)cc2c(C(=O)N3CC[C@H](CNS(C)(=O)=O)C3)coc12 [Compound I-72] | 258 to 260 °C | 8 nM |
| CC(C)(C)c1cc(-c2ccc[nH]c2=O)cc2c(C(=O)N3CC[C@@H](CNS(C)(=O)=O)C3)coc12 [Compound I-73, N-{(R)-1-[7-tert-Butyl-5-(2-oxo-1,2-dihydro-pyridin-3-yl)-benzofuran-3-carbonyl]-pyrrolidin-3-ylmethyl}-methanesulfonamide] |  | 21 nM |
| CC(C)(C)c1cc(-c2cc(F)c[nH]c2=O)cc2c(-c3ccc(CNS(C)(=O)=O)cc3)coc12 [Compound I-74] |  | 37 nM |
| CC(=O)NC[C@H]1CCN(C(=O)c2coc3c(C(C)(C)C)cc(-c4ccc[nH]c4=O)cc23)C1 [Compound I-75] |  | 197 nM |
| CC(C)(C)c1cc(-c2ccc[nH]c2=O)cc2c(-c3ccc(CN(CCO)S(C)(=O)=O)cc3)coc12 [Compound I-76, N-{4-[7-tert-Butyl-5-(2-oxo-1,2-dihydro-pyridin-3-yl)-benzofuran-3-yl]-benzyl}-N-(2-hydroxy-ethyl)-methanesulfonamide] | 222 to 224 °C | 35 nM |
| CN(Cc1ccc(-c2coc3c(C(C)(C)C)cc(-c4ccc[nH]c4=O)cc23)cc1)S(C)(=O)=O [Compound I-77] | 243 to 245 °C | 36 nM |
| CC(C)(C)c1cc(-c2ccc[nH]c2=O)cc2c(-c3ccc(NS(C)(=O)=O)cc3)coc12 [Compound I-79, N-{4-[7-tert-Butyl-5-(2-oxo-1,2-dihydro-pyridin-3-yl)-benzofuran-3-yl]-phenyl}-methanesulfonamide] | 182 to 184 °C | 27 nM |
| CC(=O)Nc1ccc(-c2coc3c(C(C)(C)C)cc(-c4ccc[nH]c4=O)cc23)cc1 [Compound I-80] | > 300 °C | 64 nM |
| CC(C)(C)c1cc(-c2ccc[nH]c2=O)cc2c(-c3cccc(CNS(C)(=O)=O)c3)coc12 [Compound I-81] | 130 to 133 °C | 175 nM |
| CC(C)(C)c1cc(-c2ccc[nH]c2=O)cc2c(C(=O)N3CCCC(CNS(C)(=O)=O)C3)coc12 (stereo not shown) [Compound I-90] |  | 6 nM |
| CC(C)(C)c1cc(-c2ccc[nH]c2=O)cc2c(-c3ccc(CNS(C)(=O)=O)nc3)coc12 [Compound I-93, N-{5-[7-tert-Butyl-5-(2-oxo-1,2-dihydro-pyridin-3-yl)-benzofuran-3-yl]-pyridin-2-ylmethyl}-methanesulfonamide] |  | 12 nM |
| CC(C)(C)c1cc(-c2ccc[nH]c2=O)cc2c(C(=O)N3CCC[C@@H](CNS(C)(=O)=O)C3)coc12 [Compound I-101] |  | 9 nM |
| Cn1cc(C#N)c2cc(-c3ccc[nH]c3=O)cc(C(C)(C)C)c21 [Compound I-110] |  | 314 nM |
